In doi:10.1101/810010v1 (biorxiv, 2019):

Molecular target: Syt1 C2B (Mus musculus, UniProt P46096)
Assay: […]-1H HSQC NMR titration, global fit of chemical shifts, single-site model
Assay type: binding

Sequence of Syt1 C2B (P46096 271-421): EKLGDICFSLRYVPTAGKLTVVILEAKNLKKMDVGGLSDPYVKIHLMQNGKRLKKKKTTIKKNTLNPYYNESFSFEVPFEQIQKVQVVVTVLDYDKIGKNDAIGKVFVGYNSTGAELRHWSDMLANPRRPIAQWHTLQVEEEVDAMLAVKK

Kd: 215 ± 16 µM
Compound: CCCC(=O)OC[C@H](COP(=O)(O)O[C@@H]1[C@H](O)[C@H](O)[C@@H](OP(=O)(O)O)[C@H](OP(=O)(O)O)[C@H]1O)OC(=O)CCC [di-C4-PtdIns(4,5)P2]
